Test results: patent US20250002450A1, “CATIONIC STEROID COMPOUNDS, METHOD OF OBTAINING THEREOF, FORMULATIONS COMPRISING THEREOF AND THEIR USES” (UNIVERSIDADE DO PORTO, priority 2021, published 2025)
In brackets after ≈: the same amount, converted by molar mass.

Tests used:
E. faecalis B3/101 (VRE) = assay: Antibacterial MIC/MBC (broth microdilution); type: cell-based, Enterococcus faecalis; settings: Enterococcus faecalis, E. faecalis B3/101 (VRE); for MBC: read-out: MBC; for MIC: read-out: MIC
Summary of the method: (§1)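 MIC = lowest compound concentration with no visible growth after 20 h at 37 degrees C in MHB2 microdilution (0.062-64 μg/mL; ~5×10^5 CFU/mL). MBC = lowest concentration giving 99.9% kill of the initial inoculum when no-growth wells were subcultured on MH agar overnight.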

[1] = system: Enterococcuss faecalis ATCC 29212; assay: Antibacterial MIC/MBC (broth microdilution); type: cell-based, Enterococcus faecalis; settings: for MBC / MIC: Enterococcus faecalis, ATCC29212, Enterococcuss faecalis ATCC 29212; for MBC: read-out: MBC; for MIC: read-out: MIC
Summary of the method: as §1

[2] = system: Streptococcuss pyogenes ATCC 19615; assay: Antibacterial MIC/MBC (broth microdilution); type: cell-based, Streptococcus pyogenes; settings: Streptococcus pyogenes, ATCC19615, Streptococcuss pyogenes ATCC 19615; for MBC: read-out: MBC; for MIC: read-out: MIC
Summary of the method: as §1

E. coli SA/2 (ESBL) = assay: Antibacterial MIC/MBC (broth microdilution); type: cell-based, Escherichia coli; settings: Escherichia coli
Summary of the method: as §1

[3] = system: E. coli 2252 (COL-resistant); assay: Antibacterial MIC/MBC (broth microdilution); type: cell-based, Escherichia coli; settings: Escherichia coli, E. coli 2252 (COL-resistant); for MBC: read-out: MBC; for MIC: read-out: MIC
Summary of the method: as §1

[4] = system: Tenacibaculum maritimum ATCC 43397; assay: Antibacterial disk diffusion; type: cell-based; settings: Tenacibaculum maritimum ATCC 43397, footnote *
[5] = system: Listonella anguilarum ATCC 1924; assay: Antibacterial MIC/MBC (broth microdilution); type: cell-based; settings: for MBC / MIC: Listonella anguilarum ATCC 1924; for MBC: read-out: MBC; for MIC: read-out: MIC
Summary of the method: as §1

[6] = system: Staphylococcus aureus ATCC 29213; assay: Antibacterial MIC/MBC (broth microdilution); type: cell-based; settings: for MBC: ATCC29213, read-out: MBC; for MIC: ATCC29213, read-out: MIC
Summary of the method: as §1

[7] = system: Klebsiella pneumoniae ATCC 13883; assay: Antibacterial MIC/MBC (broth microdilution); type: cell-based; settings: ATCC13883, Klebsiella pneumoniae ATCC 13883; for MBC: read-out: MBC; for MIC: read-out: MIC
Summary of the method: as §1

[8] = system: Yersinia ruckeri ATCC 29473; assay: Antibacterial MIC/MBC (broth microdilution); type: cell-based; settings: for MBC: ATCC29473, read-out: MBC; for MIC: ATCC29473, read-out: MIC
Summary of the method: as §1

[9] = system: Escherichia coli ATCC 25922; assay: Antibacterial MIC/MBC (broth microdilution); type: cell-based; settings: ATCC25922, Escherichia coli ATCC 25922; for MBC: read-out: MBC; for MIC: read-out: MIC
Summary of the method: as §1

[10] = system: Salmonella enterica serovar Typhimurium CECT 443; assay: Antibacterial MIC/MBC (broth microdilution); type: cell-based; settings: for MBC: read-out: MBC; for MIC: read-out: MIC
Summary of the method: as §1

[11] = system: Campylobacter jejuni ATCC 33560; assay: Antibacterial MIC/MBC (broth microdilution); type: cell-based; settings: ATCC33560, Campylobacter jejuni ATCC 33560; for MBC: read-out: MBC; for MIC: read-out: MIC
S. aureus 66/1 (MRSA) = assay: Antibacterial MIC/MBC (broth microdilution); type: cell-based, Staphylococcus aureus; settings: Staphylococcus aureus; for MBC: read-out: MBC; for MIC: read-out: MIC
Summary of the method: as §1

P. aeruginosa 33b (PDR) = assay: Antibacterial MIC/MBC (broth microdilution); type: cell-based, Pseudomonas aeruginosa; settings: Pseudomonas aeruginosa, P. aeruginosa 33b (PDR); for MBC: read-out: MBC; for MIC: read-out: MIC
Summary of the method: as §1

SMILES	MBC (E. faecalis B3/101 (VRE))	MIC (E. faecalis B3/101 (VRE))	MBC [1]	MIC [1]	MBC [2]	MIC [2]	MBC (E. coli SA/2 (ESBL))	MIC (E. coli SA/2 (ESBL))	MBC [3]	MIC [3]	Inhibition zone diameter (disk diffusion) [4]	MBC [5]	MIC [5]	MBC [6]	MIC [6]	MBC [7]	MIC [7]	MBC [8]	MIC [8]	MBC [9]	other results
C[C@H](CCC(=O)N1CCOCC1)[C@H]1CC[C@H]2[C@@H]3CC[C@@H]4C[C@H](O)CC[C@]4(C)[C@H]3C[C@H](O)[C@]12C [Compound 3, (R)-4-((3R,5R,8R,9S,10S,12S,13R,14S,17R)-3,12-dihydroxy-10,13-dimethylhexadecahydro-1H-cyclopenta[a]phenanthren-17-yl)-1-morpholinopentan-1-one]	> 64 µg/mL	> 64 µg/mL	> 64 µg/mL	> 64 µg/mL	> 64 µg/mL	> 64 µg/mL	> 64 µg/mL	> 64 µg/mL	> 64 µg/mL	> 64 µg/mL	10 mm	> 64 µg/mL	> 64 µg/mL	> 64 µg/mL	> 64 µg/mL	> 64 µg/mL	> 64 µg/mL	> 64 µg/mL	> 64 µg/mL	> 64 µg/mL	MIC [9]: > 64 µg/mL; MBC [10]: > 64 µg/mL; MIC [10]: > 64 µg/mL; MBC [11]: > 64 µg/mL; MIC [11]: > 64 µg/mL; MBC (S. aureus 66/1 (MRSA)): > 64 µg/mL; MIC (S. aureus 66/1 (MRSA)): > 64 µg/mL; MBC (P. aeruginosa 33b (PDR)): > 64 µg/mL; MIC (P. aeruginosa 33b (PDR)): > 64 µg/mL
CCN(CC)CCNC(=O)CC[C@@H](C)[C@H]1CC[C@H]2[C@@H]3CC[C@@H]4C[C@H](O)CC[C@]4(C)[C@H]3C[C@H](O)[C@]12C [Compound 6, (R)—N-(2-(diethylamino)ethyl)-4-((3R,5R,8R,9S,10S,12S,13R,14S,17R)-3,12-dihydroxy-10,13-dimethylhexadecahydro-1H-cyclopenta[a]phenanthren-17-yl)pentanamide]	> 64 µg/mL	> 64 µg/mL	64 µg/mL (≈ 130 µM)	64 µg/mL (≈ 130 µM)	> 64 µg/mL	> 64 µg/mL	> 64 µg/mL	> 64 µg/mL	> 64 µg/mL	> 64 µg/mL	10 mm	64 µg/mL (≈ 130 µM)	64 µg/mL (≈ 130 µM)	64 µg/mL (≈ 130 µM)	64 µg/mL (≈ 130 µM)	> 64 µg/mL	> 64 µg/mL	> 64 µg/mL	> 64 µg/mL	> 64 µg/mL	antibacterial activity (in words) ([1]; E. faecalis ATCC 29212): exhibited antimicrobial activity; antibacterial activity (in words) ([5]; Listonella anguilarum): active; MIC [9]: 64 µg/mL (≈ 130 µM); MBC [10]: > 64 µg/mL; MIC [10]: > 64 µg/mL; MBC [11]: > 64 µg/mL; MIC [11]: > 64 µg/mL; MBC (S. aureus 66/1 (MRSA)): 64 µg/mL (≈ 130 µM); MIC (S. aureus 66/1 (MRSA)): 64 µg/mL (≈ 130 µM); MBC (P. aeruginosa 33b (PDR)): > 64 µg/mL; MIC (P. aeruginosa 33b (PDR)): > 64 µg/mL
